Measured values published in US8329895B2, “Cefdinir acid double salt and method for producing the same” (Zhejiang Adamerck Biopharmlabs Inc., priority 2008, dated 2012).
Where a name gives a salt, the structure may show the parent alone. Read-outs that look alike come from different tables or passages of the source. Values belong to the molecule of their own block, whether it stands above or below them.

Experiments:
[1] = Bioavailability comparison in beagles, capsules by intragastric administration, cefdinir concentration in venous blood; format: in vivo; conditions: for AUC(0-t) / Cmax / Time to peak / AUC(0-10): capsules containing 200 mg of cefdinir, intragastric administration; for AUC(0-t) / AUC(0-10): 0-10 h; for Cmax: cefdinir in venous blood; for Bioavailability percentage increase: compared with conventional cefdinir capsule
Description: Beagles, half male and half female, with body weight of 10 kg, were starved for 12 hrs and only water fed. The compounds of the invention were formulated into capsules containing 200 mg of cefdinir and fed to beagles by intragastric administration. The control group was administered with conventional cefdinir capsules. 3 hrs later, the beagles were fed with common food. At 0 h, 0.5 h, 1 h, 1.5 h, 2 h, 2.5 h, 3 h, 4 h, 6 h, 8 h, and 10 h after intragastric administration, 0.5 mL of venous blood was collected respectively to measure the concentration of cefdinir.

[2] = Solubility of cefdinir and the double salts in water; format: physicochemical
Source text: The solubility of the compounds of the invention has been increased by 100 times. Table 1 lists the solubility of the compounds of the invention.)

[3] = cited from earlier work
[4] = background statement; cited from earlier work
[5] = heating; salt disclosed in CN 1,415,615A; cited from earlier work
[6] = both sexes, beagle, dog, venous blood, po, 200 mg
[7] = both sexes, beagle, dog, venous blood, po, 200 mg, read-out: Cmax

- AUC(0-t) [1, 6]: 240 µg·h/mL
- Cmax [1, 7]: 50200 ng/mL
Compound: C=CC1=C(C(=O)O)N2C(=O)C(NC(=O)/C(=N\O)c3csc(N)n3)C2SC1 (single isomer, unassigned; (-))

- Time to peak [1]: 2.5 h
- AUC(0-10) [1]: 160.31 µg·h/mL
- Cmax [1]: 34120 ng/mL
- Bioavailability percentage increase [1]: 57%
- Solubility [2]: Soluble
Compound: C=CC1=C(C(=O)O)N2C(=O)C(NC(=O)/C(=N\O)c3csc(N)n3)C2SC1 (single isomer, unassigned; (-)) [Cefdinir ammonium(0.5) hydrogen(1.5) sulfate]

- Time to peak [1]: 3 h
- AUC(0-10) [1]: 213.40 µg·h/mL
- Cmax [1]: 47650 ng/mL
- Bioavailability percentage increase [1]: 109%
- Solubility [2]: Soluble
Compound: C=CC1=C(C(=O)O)N2C(=O)C(NC(=O)/C(=N\O)c3csc(N)n3)C2SC1 (single isomer, unassigned; (-)) [Cefdinir potassium(0.5) hydrogen(1.5) sulfate]

- Time to peak [1]: 3 h
- Bioavailability percentage increase [1]: 135%
- Solubility [2]: Soluble
Compound: C=CC1=C(C(=O)O)N2C(=O)C(NC(=O)/C(=N\O)c3csc(N)n3)C2SC1 (single isomer, unassigned; (-)) [Cefdinir sodium(0.5) hydrogen(1.5) sulfate]

Compound: C=CC1=C(C(=O)O)N2C(=O)[C@@H](NC(=O)/C(=N\O)c3csc(N)n3)[C@H]2SC1 [Cefdinir ammonium hydrogen sulfate, (−)-(6R,7R)-7-((Z)-2-(2-aminothiazole-4-yl)-2-hydroxyimino-acetylamino)-8-oxo-3-vinyl-5-thia-1-azabicyclo(4.2.0)oct-2-ene-2-carboxylic acid ammonium hydrogen sulfate]
- AUC(0-10) ([1]; ammonium hydrogen sulfate): 202.18 µg·h/mL
- Time to peak ([1]; ammonium hydrogen sulfate): 3 h
- Cmax ([1]; ammonium hydrogen sulfate): 43630 ng/mL
- Bioavailability percentage increase ([1]; ammonium hydrogen sulfate): 98%
- Solubility ([2]; ammonium hydrogen sulfate): Slightly soluble

Compound: C=CC1=C(C(=O)O)N2C(=O)[C@@H](NC(=O)/C(=N\O)c3csc(N)n3)[C@H]2SC1 [Cefdinir potassium dihydrogen phosphate, (−)-(6R,7R)-7-((Z)-2-(2-aminothiazole-4-yl)-2-hydroxyimino-acetylamino) 8-oxo-3-vinyl-5-thia-1-azabicyclo(4.2.0)oct-2-ene-2-carboxylic acid potassium dihydrogen phosphate]
- AUC(0-10) ([1]; phosphate): 152.15 µg·h/mL
- Cmax ([1]; phosphate): 30370 ng/mL
- Time to peak ([1]; phosphate): 3 h
- Bioavailability percentage increase ([1]; phosphate): 49%

Compound: C=CC1=C(C(=O)O)N2C(=O)[C@@H](NC(=O)/C(=N\O)c3csc(N)n3)[C@H]2SC1 [Cefdinir potassium hydrogen sulfate, (−)-(6R,7R)-7-((Z)-2-(2-aminothiazole-4-yl)-2-hydroxyimino-acetylamino)-8-oxo-3-vinyl-5-thia-1-azabicyclo(4.2.0)oct-2-ene-2-carboxylic acid potassium hydrogen sulfate]
- AUC(0-t) [1, 6]: 261 µg·h/mL
- Cmax [1, 7]: 54100 ng/mL
- Time to peak ([1]; potassium hydrogen sulfate): 2.5 h
- Bioavailability percentage increase ([1]; potassium hydrogen sulfate): 156%
- Solubility ([2]; potassium hydrogen sulfate): Slightly soluble

Compound: C=CC1=C(C(=O)O)N2C(=O)[C@@H](NC(=O)/C(=N\O)c3csc(N)n3)[C@H]2SC1 [Cefdinir sodium dihydrogen phosphate, (−)-(6R,7R)-7-((Z)-2-(2-aminothiazole-4-yl)-2-hydroxyimino-acetylamino)-8-oxo-3-vinyl-5-thia-1-azabicyclo(4.2.0)oct-2-ene-2-carboxylic acid sodium dihydrogen phosphate]
- AUC(0-10) ([1]; phosphate): 123.55 µg·h/mL
- Cmax ([1]; phosphate): 27280 ng/mL
- Time to peak ([1]; phosphate): 2.5 h
- Bioavailability percentage increase ([1]; phosphate): 20%
- Solubility ([2]; phosphate): Slightly soluble

Compound: C=CC1=C(C(=O)O)N2C(=O)[C@@H](NC(=O)/C(=N\O)c3csc(N)n3)[C@H]2SC1 [Cefdinir sodium hydrogen sulfate, (−)-(6R,7R)-7-((Z)-2-(2-aminothiazole-4-yl)-2-hydroxyimino-acetylamino)-8-oxo-3-vinyl-5-thia-1-azabicyclo(4.2.0)oct-2-ene-2-carboxylic acid sodium hydrogen sulfate]
- AUC(0-10) ([1]; sodium hydrogen sulfate): 255.27 µg·h/mL
- Cmax ([1]; sodium hydrogen sulfate): 65430 ng/mL
- Time to peak ([1]; sodium hydrogen sulfate): 3 h
- Bioavailability percentage increase ([1]; sodium hydrogen sulfate): 149%
- Solubility ([2]; sodium hydrogen sulfate): Slightly soluble

Compound: C=CC1=C(C(=O)O)N2C(=O)[C@@H](NC(=O)/C(=N\O)c3csc(N)n3)[C@H]2SC1 [Cefdinir]
- bioavailability ([3]; capsule): 16-20%
- bioavailability ([3]; liquid suspension): 25%
- Solubility [2]: hardly soluble
- Solubility in water [4]: insoluble

Compound: C=CC1=C(C(=O)[O-])N2C(=O)C(NC(=O)C(=NO)c3csc(N)n3)C2SC1.[Na+] (stereo not drawn) [sodium cefdinir]
- Temperature at which the salt turns black [5]: 190 °C
- Temperature at which the salt turns yellow [5]: about 160 °C
